Source: PubChem BioAssay AID256 (DTP/NCI, 2004)
Values joined by “and” are separate entries in the source; they are usually repeats but may differ in a detail not shown here. Equal values may be shown once. Inconclusive results and toxic doses are left out. Rule for the calls: active = survival T/C of 150% or more; inactive = T/C below 125% in these data.

Test system: CD2F1 mice, L1210 leukemia ip, survival T/C
Experiment: NCI In Vivo Anticancer Drug Screen. Data for tumor model L1210 Leukemia (intraperitoneal) in CD2F1 (CDF1) mice
Details: endpoint: mean survival time, higher = longer survival
In short: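 Read-out first: treated-group measurement over vehicle-control measurement, expressed as a ratio. Animals bore a transplanted tumor line and were dosed with compound or vehicle.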

[1] = dose: 400.0 mg/kg/injection, schedule: Q01DX009 (ip), vehicle: saline with Tween-80
[2] = dose: 12.5 mg/kg/injection, schedule: Q01DX009 (ip), vehicle: saline with Tween-80
[3] = dose: 25.0 mg/kg/injection, schedule: Q01DX009 (ip), vehicle: saline with Tween-80
[4] = dose: 50.0 mg/kg/injection, schedule: Q01DX009 (ip), vehicle: saline with Tween-80
[5] = dose: 100.0 mg/kg/injection, schedule: Q01DX009 (ip), vehicle: saline with Tween-80
[6] = dose: 100.0 mg/kg/injection, schedule: Q04DX003 (ip), vehicle: saline with Tween-80
[7] = dose: 200.0 mg/kg/injection, schedule: Q01DX009 (ip), vehicle: saline with Tween-80
[8] = dose: 200.0 mg/kg/injection, schedule: Q04DX003 (ip), vehicle: saline with Tween-80
[9] = dose: 400.0 mg/kg/injection, schedule: Q04DX003 (ip), vehicle: saline with Tween-80
[10] = dose: 100.0 mg/kg/injection, schedule: Q01DX001 (ip), vehicle: saline with Tween-80
[11] = dose: 200.0 mg/kg/injection, schedule: Q01DX001 (ip), vehicle: saline with Tween-80
[12] = dose: 400.0 mg/kg/injection, schedule: Q01DX001 (ip), vehicle: saline with Tween-80

Measured: T/C

c1ccc2cc(-c3cc4ccccc4s3)ccc2c1
inactive: dose: 264.0 mg/kg/injection, schedule: Q01DX009 (ip), vehicle: saline with Tween-80 104 % of control | [1] 98 % of control

C[Si](c1ccccc1)c1ccccc1
inactive: dose: 100.0 mg/kg/injection, schedule: Q01DX001 (ip), vehicle: other 97 % of control | dose: 200.0 mg/kg/injection, schedule: Q01DX001 (ip), vehicle: other 100 % of control | dose: 400.0 mg/kg/injection, schedule: Q01DX001 (ip), vehicle: other 100 % of control

O=C1C=C(NC2CCCCCC2)C(=O)c2nccnc21
inactive: dose: 6.25 mg/kg/injection, schedule: Q01DX009 (ip), vehicle: saline with Tween-80 91 % of control | [2] 95 % of control | [3] 91 % of control | [4] 93 % of control

CCCCCCCCCCCCCCCCC(C(=O)O)C(O)(CC(=O)O)C(=O)O (centres undefined)
inactive: [3] 90 % of control | [4] 88 % of control

CC(C)CCOC(=S)S.[Pt]
inactive: dose: 9.37 mg/kg/injection, schedule: Q04DX003 (ip), vehicle: saline with Tween-80 112 % of control | dose: 18.75 mg/kg/injection, schedule: Q04DX003 (ip), vehicle: saline with Tween-80 96 % of control | dose: 37.5 mg/kg/injection, schedule: Q04DX003 (ip), vehicle: saline with Tween-80 96 % of control | dose: 75.0 mg/kg/injection, schedule: Q04DX003 (ip), vehicle: saline with Tween-80 104 % of control | dose: 150.0 mg/kg/injection, schedule: Q04DX003 (ip), vehicle: saline with Tween-80 96 % of control

Cc1nc(/N=C(/N)N(C)C)[nH]c(=O)c1C
inactive: dose: 100.0 mg/kg/injection, schedule: Q01DX001 (ip), vehicle: saline 97 % of control | dose: 200.0 mg/kg/injection, schedule: Q01DX001 (ip), vehicle: saline 103 % of control | dose: 400.0 mg/kg/injection, schedule: Q01DX001 (ip), vehicle: saline 109 % of control

O=[N+]([O-])c1cccc(S(=O)(=O)Nc2ccccc2Cl)c1
inactive: [5] 97 % of control | [6] 96 % of control | [7] 92 % of control | [8] 96 % of control | [1] 95 % of control | [9] 95 % of control

CCOC(=O)C(NC(N)=O)C(=O)OCC
inactive: dose: 25.0 mg/kg/injection, schedule: Q01DX009 (ip), vehicle: water 91 % of control | dose: 50.0 mg/kg/injection, schedule: Q01DX009 (ip), vehicle: water 91 % of control | dose: 100.0 mg/kg/injection, schedule: Q01DX009 (ip), vehicle: water 93 % of control | dose: 200.0 mg/kg/injection, schedule: Q01DX009 (ip), vehicle: water 89 % of control | dose: 400.0 mg/kg/injection, schedule: Q01DX009 (ip), vehicle: water 93 % of control

C[n+]1c(/C=C\c2cccc([N+](=O)[O-])c2)ccc2ccccc21
inactive: [10] 106 % of control | [5] 87 % of control | [11] 95 % of control | [7] 91 % of control | [12] 107 % of control | [1] 95 % of control

CC(C)c1nc(-c2ccccc2)c(-c2ccccc2)[nH]1
inactive: [5] 103 % of control | [7] 94 % of control | [1] 100 % of control

CC(C)CP(=O)(CC(C)C)CC(C)C
inactive: dose: 1.56 mg/kg/injection, schedule: Q04DX003 (ip), vehicle: saline with Tween-80 98 % of control | dose: 3.13 mg/kg/injection, schedule: Q04DX003 (ip), vehicle: saline with Tween-80 98 % of control | dose: 6.25 mg/kg/injection, schedule: Q04DX003 (ip), vehicle: saline with Tween-80 101 % of control

CCOC(=O)CCOc1ccccc1N(CCCl)CCCl
inactive: [5] 87 % of control

C=CCN(C)N=Nc1ccc(NC(N)=O)cc1
inactive: dose: 2.34 mg/kg/injection, schedule: Q01DX009 (ip), vehicle: Klucel (hydroxypropylcellulose) (HPC) 100 % of control and 104 % of control | dose: 4.68 mg/kg/injection, schedule: Q01DX009 (ip), vehicle: Klucel (hydroxypropylcellulose) (HPC) 104 % of control and 107 % of control | dose: 9.37 mg/kg/injection, schedule: Q01DX009 (ip), vehicle: Klucel (hydroxypropylcellulose) (HPC) 110 % of control | dose: 18.75 mg/kg/injection, schedule: Q01DX009 (ip), vehicle: Klucel (hydroxypropylcellulose) (HPC) 120 % of control | dose: 75.0 mg/kg/injection, schedule: Q01DX009 (ip), vehicle: Klucel (hydroxypropylcellulose) (HPC) 98 % of control

C=C(Cl)CSCC
inactive: dose: 25.0 mg/kg/injection, schedule: Q01DX009 (ip), vehicle: acetone 114 % of control | dose: 50.0 mg/kg/injection, schedule: Q01DX009 (ip), vehicle: acetone 120 % of control

CC(CN=Cc1ccccc1[O-])N=Cc1ccccc1[O-].[O]=[V] (centres undefined)
inactive: dose: 5.0 mg/kg/injection, schedule: Q04DX003 (ip), vehicle: saline with Tween-80 90 % of control | dose: 10.0 mg/kg/injection, schedule: Q04DX003 (ip), vehicle: saline with Tween-80 94 % of control | dose: 20.0 mg/kg/injection, schedule: Q04DX003 (ip), vehicle: saline with Tween-80 90 % of control

CCCN=C(N)C(N)=NCCC (tested in a mixture with another compound)
inactive: dose: 100.0 mg/kg/injection, schedule: Q04DX002 (ip), vehicle: other 106 % of control | dose: 100.0 mg/kg/injection, schedule: Q04DX002 (ip), vehicle: saline with Tween-80 95 % of control | dose: 200.0 mg/kg/injection, schedule: Q04DX002 (ip), vehicle: other 103 % of control | dose: 200.0 mg/kg/injection, schedule: Q04DX002 (ip), vehicle: saline with Tween-80 100 % of control | dose: 400.0 mg/kg/injection, schedule: Q04DX002 (ip), vehicle: other 91 % of control | dose: 400.0 mg/kg/injection, schedule: Q04DX002 (ip), vehicle: saline with Tween-80 91 % of control

CCCCCCCCCCOC(=O)COc1ccc(C(C)(C)C)cc1
inactive: [2] 106 % of control | [3] 97 % of control | [4] 97 % of control

O=C1OC2(c3ccc(O)cc3Oc3cc(O)ccc32)C2C1C1(Cl)C(Cl)=C(Cl)C2(Cl)C1(Cl)Cl (centres undefined)
inactive: [5] 101 % of control | [7] 97 % of control | [1] 95 % of control

O=C(O)CS(=O)(=O)CC(=O)O
inactive: dose: 25.0 mg/kg/injection, schedule: Q01DX001 (ip), vehicle: saline with Tween-80 93 % of control | dose: 50.0 mg/kg/injection, schedule: Q01DX001 (ip), vehicle: saline with Tween-80 104 % of control | dose: 50.0 mg/kg/injection, schedule: Q01DX009 (ip), vehicle: saline 90 % of control | [10] 102 % of control | dose: 100.0 mg/kg/injection, schedule: Q01DX009 (ip), vehicle: saline 89 % of control | dose: 200.0 mg/kg/injection, schedule: Q01DX009 (ip), vehicle: saline 93 % of control

C[n+]1ccc(CCC(=O)Nc2ccccc2)cc1
inactive: [6] 100 % of control | [8] 100 % of control

O=c1c2ccccc2sc2c1ccc1ccccc12
inactive: [10] 100 % of control | [11] 101 % of control | [12] 94 % of control

COc1cc(C2CNCc3cc(O)c(OC)cc32)ccc1O (centres undefined)
inactive: dose: 75.0 mg/kg/injection, schedule: Q01DX001 (ip), vehicle: saline 106 % of control | dose: 150.0 mg/kg/injection, schedule: Q01DX001 (ip), vehicle: saline 102 % of control

Nc1cccc2cnccc12
inactive: [5] 100 % of control | [6] 91 % of control | [7] 98 % of control | [8] 93 % of control | [9] 96 % of control

CC(=O)n1c2ccccc2c2ccccc21
inactive: [4] 106 % of control | [5] 109 % of control | [7] 106 % of control

CC(=O)C1=C(C)NC(C)=C(C(C)=O)C1c1cccc([N+](=O)[O-])c1
inactive: [6] 94 % of control | [8] 91 % of control | [9] 96 % of control
